According to patent US20070054887A1, “Methods for treating bladder dysfunction” (BioXell S.p.A, priority 2003, published 2007):
“And” between values parts separate entries of the source, which are not always exact repeats. Equal values may be shown once. Read-outs that look alike come from different tables or passages of the source.

Experiments:
human bladder cells = test: inhibition of basal human bladder cell growth; format: cell-based; conditions: for IC50: Homo sapiens
BPH cells = conditions: previously found, cited from earlier work; for BPH cell proliferation: also counteracted mitogenic activity of KGF and IGFI
[1] = system: rats with CYP-induced cystitis; test: cyclophosphamide (CYP) induced chronic cystitis in rats: conscious cystometry; format: in vivo, Wistar rats; parameters: amplitude of NVBC (amplitude of non-voiding bladder contraction): unit not given here
Description: The rat model of chemical cystitis induced by intraperitoneal injection of CYP has been well accepted. CYP is used in clinical practice in the treatment of a number of malignant tumors. One of its metabolites, acrolein, is excreted in urine in large concentrations causing hemorrhagic cystitis associated with symptoms of urinary frequency, urgency and pelvic pain. The inflammatory process is characterized by changes in gross histology of bladder, increase in number and distribution of inflammatory cell infiltrates (mast cells, macrophage, PMNs), cyclo-oxygenase-2 expression and prostaglandin production, growth factor and cytokine production. The rat model of chemical cystitis closely resembles interstitial cystitis, a chronic, painful urinary bladder syndrome and has been used for the testing of therapeutic agents in the past.
This model was used to test the effects of 1,25-dihydroxyvitamin D3 analogue in rats with CYP-induced cystitis. The effects of the treatment on the cystometric parameters in a conscious freely moving rat with CYP-induced cystitis were monitored. The following cystometric parameters were recorded in each animal:
Animals: Wistar rats weighing 125-175 g were used. […] Following recovery all animals received three intraperitoneal injections of CYP and subsequently were divided into the treatment and sham control groups.
Treatment group: Rats treated with oral 1,25-dihydroxyvitamin D3 analogue 1,3-di-O-acetyl-1,25-dihydroxy-16,23Z-diene-26,27-hexafluoro-19-nor-cholecalciferol (“Compound C”) for 14 days (daily dose of 0.1 μg/kg) [drawing 138]
Cystometry was performed 24 hours following the last dose of the drug or vehiculum on awake freely moving animals.
A lower midline abdominal incision was performed under general inhalation anesthesia (isoflurine with O2) and polyethylene tubing (PE-50, Clay Adams, Parsippany, N.J.) with the end flared by heat was inserted into the dome of the bladder and secured in place with a 6-0 prolene purse string suture. The distal end of the tubing was heat-sealed, tunneled subcutaneously and externalized at the back of the neck, out of the animal's reach. Abdominal and neck incisions were closed with 4-0 nylon sutures.
Following recovery (5 days) subject animals underwent three intraperitoneal injections of CYP (Sigma Chemical, St. Louis, Mo.; 75 mg/kg each, intraperitoneal) over the period of nine days. On the tenth day following the first CYP injection the sham control animals received the vehicle only, whereas the experimental group were treated with the 1,25-dihydroxyvitamin D3 analogue 1,3-di-O-acetyl-1,25-dihydroxy-16,23Z-diene-26,27-hexafluoro-19-nor-cholecalciferol “Compound C” (delivered using gavage). Two weeks following the initiation of the treatment animals underwent a conscious cystometrogram to assess the function of the urinary bladder.
An animal was placed unrestrained in a cage and the catheter was connected via a T-tube to a pressure transducer (Grass® Model PT300, West Warwick, R.I.) and microinjection pump (Harvard Apparatus 22, South Natick, Mass.). A 0.9% saline solution was infused at room temperature into the bladder at a rate of 10 ml/h. Intravesical pressure was recorded continuously using a Neurodata Acquisition System (Grass® Model 15, Astro-Med, Inc, West Warwick, R.I.). At least three reproducible micturition cycles were recorded after the initial stabilization period of 25-30 min.

[2] = maximum tolerated dose (MTD) in rats; format: in vivo
Description: The maximum tolerated dose (MTD) in rats is also listed for each compound.

hBC = test: androgen-stimulated hBC growth, 48 h incubation; format: cell-based, human; conditions: DHT 10 nM, Compound A 1 nM, finasteride 1 nM, FIG. 5
Description: Results are expressed as percentage variation (mean±SEM) over their relative controls and derived from at least three different experiments obtained from three distinct hBC cell preparations. *P<0.05 (vs. control); °P<0.01 (vs. androgen-treated cells).

[3] = drug treated animals versus vehicle, 0.1 μg/kg oral 14 days
[4] = oral 0.1 μg/kg daily for 14 days, individual rats, three micturition cycles each

Q: For C=C1/C(=C\C=C2/CCC[C@]3(C)C([C@H](C)CC#CC(C)(C)O)=CC[C@@H]23)C[C@@H](O)C[C@@H]1O [Compound B, 1,25-dihydroxy-16-ene-23-yne cholecalciferol], which “inhibition of bladder cell growth” value (human bladder cells; stimulated and basal bladder cell growth, FIG. 4, in some cases significantly greater than anti-androgens such as finasteride) is on record?
A: demonstrated

Q: What about the BPH cell proliferation (BPH cells) of the same compound?
A: inhibited

Q: And the “apoptosis in BPH cells” value (BPH cells; unstimulated and KGF-stimulated BPH cells)?
A: induced

Q: For CC(=O)OC1C/C(=C/C=C2\CCC[C@]3(C)C(C(C)C/C=C\C(O)(C(F)(F)F)C(F)(F)F)=CCC23)C[C@@H](OC(C)=O)C1 (some centres unmarked) [Compound C, 1,3-di-O-acetyl-1,25-dihydroxy-16,23Z-diene-26,27-hexafluoro-19-nor-cholecalciferol], which “amplitude of non-voiding bladder contractions, change versus control” value [1, 3] is on record?
A: Dramatic reductions

Q: And the “bladder capacity, change versus control” value [1, 3]?
A: did not result in a change

Q: And the “filling pressure, change versus control” value [1, 3]?
A: statistically significant reductions

Q: And the “number of non-voiding bladder contractions, change versus control” value [1, 3]?
A: Dramatic reductions

Q: What about the “threshold pressure, change versus control” value [1, 3] of the same compound?
A: statistically significant reductions

Q: And the “Bl. Cap. (bladder capacity)” value ([1]; oral 0.1 μg/kg daily for 14 days, individual rats RB7, RB13, RB15, three micturition cycles each)?
A: 1.9 ml and 1.3 ml (2×) and 2.5 ml and 1.5 ml and 0.7 ml (2×) and 0.8 ml and 1.4 ml

Q: And the “# of NVBC (number of non-voiding bladder contractions)” value [1, 4]?
A: 4 and 8 (2×) and 0 (6×)

Q: And the “FP (filling pressure)” value [1, 4]?
A: 15 cmH2O and 14 cmH2O (3×) and 12 cmH2O and 11 cmH2O and 10 cmH2O and 13 cmH2O (2×)

Q: What about the “MP (micturition pressure)” value [1, 4] of the same compound?
A: 105 cmH2O and 97 cmH2O (2×) and 90 cmH2O and 100 cmH2O and 108 cmH2O and 98 cmH2O and 101 cmH2O and 104 cmH2O

Q: And the “TP (threshold pressure)” value [1, 4]?
A: 16 cmH2O and 17 cmH2O and 14 cmH2O (4×) and 12 cmH2O and 11 cmH2O and 15 cmH2O

Q: And the “amplitude of NVBC (amplitude of non-voiding bladder contraction)” value [1, 4]?
A: 10 and 11 (2×) and 0 (6×)

Q: And the IC50 (human bladder cells)?
A: 0.0398 µM

Q: And the MTD ([2]; rat, in vivo, read-out: MTD)?
A: 0.0001 mg/kg

Q: Which BPH cell proliferation (BPH cells) does the source give for C=C1CC[C@H](O)C/C1=C/C=C1\CCC[C@]2(C)[C@@H]([C@H](C)CCCC(C)C)CC[C@@H]12 [vitamin D3, reference compound] here?
A: inhibited

Q: For CC(C)(C)NC(=O)[C@H]1CC[C@H]2[C@@H]3CC[C@H]4NC(=O)C=C[C@]4(C)[C@H]3CC[C@]12C [finasteride, reference compound], which “hBC proliferation stimulated by the androgen DHT” value (hBC) is on record?
A: no significant effect

Q: Which results are given for C=C1C(=CC=C2CCCC3(C)C2CCC3C2(CC#CC(C)(C)O)CC2)CC(OC(C)=O)CC1OC(C)=O (centres unmarked) [1,3-Di-O-acetyl-1,25-dihydroxy-20-cyclopropyl-23-yne-cholecalciferol]?
A: −Log IC50 (human bladder cells; basal human bladder cell growth, cells not stimulated with testosterone): >2; MTD [2]: 0.03 mg/kg

Q: With [2H]C([2H])([2H])C(O)(CCC[C@@H](CC#CC(O)(C(F)(F)F)C(F)(F)F)C1CCC2/C(=C/C=C3C[C@@H](O)C[C@H](O)C3)CCC[C@@]21C)C([2H])([2H])[2H] (stereo partly drawn) [1,25-Dihydroxy-21(3-hydroxy-3-trifluoromethyl-4-trifluoro-butynyl)-26,27-hexadeutero-19-nor-20S-cholecalciferol] as the compound, how does the IC50 (human bladder cells) read?
A: 31600 µM

Q: What about the MTD ([2]; rat, in vivo, read-out: MTD) of the same compound?
A: 0.0002 mg/kg

Q: Which results are given for CC(=O)O[C@@H]1CC(=C/C=C2\CCC[C@]3(C)C([C@H](C)CCC(=O)C(C)(C)O)=CCC23)C[C@@H](OC(C)=O)C1 (some centres unmarked) [1,3-O-Diacetyl-1,25-Dihydroxy-16-ene-24-Keto-19-nor-Cholecalciferol]?
A: IC50 (human bladder cells): 0.617 µM; MTD ([2]; rat, in vivo, read-out: MTD): 0.3 mg/kg

Q: Which IC50 (human bladder cells) does the source give for CC(=O)OC1C/C(=C/C=C2\CCC[C@@]3(C)C2CCC3C2(CC#CC(O)(C(F)(F)F)C(F)(F)F)CC2)C[C@@H](OC(C)=O)C1 (some centres unmarked) [1,3-Di-O-acetyl-1,25-dihydroxy-20-cyclopropyl-23-yne-26,27-hexafluoro-19-nor-cholecalciferol] here?
A: 0.0012 µM

Q: What about the MTD ([2]; rat, in vivo, read-out: MTD) of the same compound?
A: 0.01 mg/kg

Q: What does the source list for CC(=O)OC1C/C(=C/C=C2\CCC[C@@]3(C)C2CCC3C2(C/C=C\C(O)(C(F)(F)F)C(F)(F)F)CC2)C[C@@H](OC(C)=O)C1 (some centres unmarked) [1,3-Di-O-acetyl-1,25-dihydroxy-20-cyclopropyl-23Z-ene-26,27-hexafluoro-19-nor-cholecalciferol]?
A: IC50 (human bladder cells): 0.2 µM; MTD ([2]; rat, in vivo, read-out: MTD): 0.01 mg/kg

Q: For C=C1/C(=C\C=C2/CCC[C@@]3(C)C2CCC3C(CCCC(C)(C)O)CCC(O)C(C)(C)O)C[C@@H](O)C[C@@H]1O (stereo partly drawn) [1,25-Dihydroxy-21-(2R,3-dihydroxy-3-methyl-butyl)-20R-Cholecalciferol], which IC50 (human bladder cells) is on record?
A: 24 µM

Q: What about the MTD ([2]; rat, in vivo, read-out: MTD) of the same compound?
A: 0.03 mg/kg

Q: For CC(=O)OC1C/C(=C/C=C2\CCC[C@@]3(C)C2CCC3C2(CC#CC(OC(C)=O)(C(F)(F)F)C(F)(F)F)CC2)C[C@@H](OC(C)=O)C1 (some centres unmarked) [1,3,25-Tri-O-acetyl-1,25-dihydroxy-20-cyclopropyl-23-yne-26,27-hexafluoro-19-nor-cholecalciferol], which IC50 (human bladder cells) is on record?
A: 0.0398 µM

Q: And the MTD ([2]; rat, in vivo, read-out: MTD)?
A: 0.01 mg/kg
